Measurements published in ChEMBL document CHEMBL1201862, “PubChem BioAssay data set” (2004).
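Grown in 96-well plates, cells were treated for 48 hours with each compound at five concentrations. Insufficient inhibition: endpoint recorded as highest concentration tested. Here, GI50 denotes the concentration required for 50% inhibition of growth.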 Active and inactive are the calls of the source. Rule as the data show it: active = GI50 up to about 1.1 µM and inactive = higher.

What was measured:
Assay in all cases: NCI-60 cell line screen, 48 h
[1] = system: SN12C
[2] = system: SF-268
[3] = system: HCT-116
[4] = system: ACHN
[5] = system: OVCAR-5
[6] = system: NCI-H23
[7] = system: CAKI-1
[8] = system: SR
[9] = system: TK-10
[10] = system: K562
[11] = system: OVCAR-4
[12] = system: OVCAR-8
[13] = system: M14
[14] = system: RXF 393
[15] = system: HOP-92
[16] = system: HT-29
[17] = system: LOX IMVI
[18] = system: SF-295
[19] = system: HCT-15
[20] = system: A549
[21] = system: SK-OV-3
[22] = system: MCF7
[23] = system: SNB-19
[24] = system: HCC 2998
[25] = system: SW-620
[26] = system: UO-31
[27] = system: NCI-H226
[28] = system: Malme-3M
[29] = system: NCI-H522
[30] = system: KM12
[31] = system: UACC-257
[32] = system: IGROV-1
[33] = system: 786-0
[34] = system: COLO 205
[35] = system: NCI-H460
[36] = system: MOLT-4
[37] = system: DU-145
[38] = system: CCRF-CEM
[39] = system: PC-3
[40] = system: NCI/ADR-RES
[41] = system: MDA-MB-435
[42] = system: A498
[43] = system: MDA-MB-231
[44] = system: U-251
[45] = system: UACC-62
[46] = system: SK-MEL-2
[47] = system: EKVX
[48] = system: T47D
[49] = system: OVCAR-3
[50] = system: SK-MEL-28
[51] = system: HOP-62
[52] = system: SF-539
[53] = system: HL-60
[54] = system: SK-MEL-5
[55] = system: RPMI-8226
[56] = system: Hs-578T
[57] = system: MDA-N

Structure (SMILES): CN(C)C1COC2Cc3ccccc3C1O2 (centres undefined)
- GI50 [1]: > 100 µM (inactive)
- GI50 [2]: > 100 µM (inactive)
- GI50 [3]: > 100 µM (inactive)
- GI50 [4]: > 100 µM (inactive)
- GI50 [5]: > 100 µM (inactive)
- GI50 [6]: > 100 µM (inactive)
- GI50 [7]: > 100 µM (inactive)
- GI50 [8]: > 100 µM (inactive)
- GI50 [9]: > 100 µM (inactive)
- GI50 [10]: > 100 µM (inactive)
- GI50 [11]: > 100 µM (inactive)
- GI50 [12]: > 100 µM (inactive)
- GI50 [13]: > 100 µM (inactive)
- GI50 [14]: > 100 µM (inactive)
- GI50 [15]: > 100 µM (inactive)
- GI50 [16]: > 100 µM (inactive)
- GI50 [17]: > 100 µM (inactive)
- GI50 [18]: > 100 µM (inactive)
- GI50 [19]: > 100 µM
- GI50 [20]: > 100 µM (inactive)
- GI50 [21]: > 100 µM (inactive)

Structure (SMILES): COc1ccc(/C=N/Nc2nc3ccccc3c(=O)n2-c2ccccc2)c(OCc2ccccc2)c1
- GI50 [1]: > 100 µM (inactive)
- GI50 [22]: 0.226 µM (active)
- GI50 [23]: > 100 µM (inactive)
- GI50 [2]: > 100 µM (inactive)
- GI50 [24]: > 100 µM (inactive)
- GI50 [3]: > 100 µM (inactive)
- GI50 [25]: > 100 µM (inactive)
- GI50 [4]: > 100 µM (inactive)
- GI50 [5]: > 100 µM (inactive)
- GI50 [26]: > 100 µM (inactive)
- GI50 [6]: > 100 µM (inactive)
- GI50 [27]: > 100 µM (inactive)
- GI50 [28]: > 100 µM (inactive)
- GI50 [7]: 34.8 µM (inactive)
- GI50 [8]: > 100 µM (inactive)
- GI50 [29]: > 100 µM (inactive)
- GI50 [30]: > 100 µM (inactive)
- GI50 [31]: > 100 µM (inactive)
- GI50 [32]: > 100 µM (inactive)
- GI50 [9]: > 100 µM (inactive)
- GI50 [33]: > 100 µM (inactive)
- GI50 [10]: > 100 µM (inactive)
- GI50 [34]: > 100 µM (inactive)
- GI50 [35]: > 100 µM (inactive)
- GI50 [36]: > 100 µM (inactive)
- GI50 [11]: > 100 µM (inactive)
- GI50 [37]: > 100 µM (inactive)
- GI50 [38]: > 100 µM (inactive)
- GI50 [39]: 35.6 µM (inactive)
- GI50 [12]: > 100 µM (inactive)
- GI50 [13]: 83.9 µM (inactive)
- GI50 [40]: > 100 µM (inactive)
- GI50 [14]: > 100 µM (inactive)
- GI50 [15]: 19.3 µM (inactive)
- GI50 [16]: > 100 µM (inactive)
- GI50 [41]: > 100 µM (inactive)
- GI50 [17]: > 100 µM (inactive)
- GI50 [42]: > 100 µM (inactive)
- GI50 [18]: > 100 µM (inactive)
- GI50 [43]: 88.7 µM (inactive)
- GI50 [19]: > 100 µM
- GI50 [44]: > 100 µM (inactive)
- GI50 [45]: 70.6 µM (inactive)
- GI50 [46]: 0.0656 µM (active)
- GI50 [47]: 33.9 µM (inactive)
- GI50 [48]: > 100 µM (inactive)
- GI50 [49]: > 100 µM (inactive)
- GI50 [50]: > 100 µM (inactive)
- GI50 [51]: > 100 µM (inactive)
- GI50 [52]: 14.5 µM (inactive)
- GI50 [20]: > 100 µM (inactive)
- GI50 [21]: > 100 µM (inactive)
- GI50 [53]: > 100 µM (inactive)
- GI50 [54]: > 100 µM (inactive)

Structure (SMILES): CC(=O)Nc1oc(C)nc1C#N
- GI50 [1]: > 100 µM (inactive)
- GI50 [55]: > 100 µM (inactive)
- GI50 [22]: > 100 µM (inactive)
- GI50 [23]: > 100 µM (inactive)
- GI50 [2]: > 100 µM (inactive)
- GI50 [3]: > 100 µM (inactive)
- GI50 [56]: > 100 µM (inactive)
- GI50 [25]: > 100 µM (inactive)
- GI50 [4]: > 100 µM (inactive)
- GI50 [5]: > 100 µM (inactive)
- GI50 [7]: > 100 µM (inactive)
- GI50 [8]: > 100 µM (inactive)
- GI50 [30]: > 100 µM (inactive)
- GI50 [31]: > 100 µM (inactive)
- GI50 [32]: > 100 µM (inactive)
- GI50 [9]: > 100 µM (inactive)
- GI50 [33]: > 100 µM (inactive)
- GI50 [10]: > 100 µM (inactive)
- GI50 [57]: > 100 µM (inactive)
- GI50 [36]: > 100 µM (inactive)
- GI50 [11]: > 100 µM (inactive)
- GI50 [37]: > 100 µM (inactive)
- GI50 [38]: > 100 µM (inactive)
- GI50 [39]: > 100 µM (inactive)
- GI50 [12]: > 100 µM (inactive)
- GI50 [13]: > 100 µM (inactive)
- GI50 [14]: > 100 µM (inactive)
- GI50 [15]: > 100 µM (inactive)
- GI50 [16]: > 100 µM (inactive)
- GI50 [41]: > 100 µM (inactive)
- GI50 [17]: > 100 µM (inactive)
- GI50 [42]: > 100 µM (inactive)
- GI50 [43]: > 100 µM (inactive)
- GI50 [19]: > 100 µM
- GI50 [44]: > 100 µM (inactive)
- GI50 [45]: > 100 µM (inactive)
- GI50 [46]: > 100 µM (inactive)
- GI50 [47]: > 100 µM (inactive)
- GI50 [50]: > 100 µM (inactive)
- GI50 [51]: > 100 µM (inactive)
- GI50 [20]: > 100 µM (inactive)
- GI50 [21]: > 100 µM (inactive)
- GI50 [53]: > 100 µM (inactive)
- GI50 [54]: > 100 µM (inactive)
